Reference: ChEMBL document CHEMBL1201862, “PubChem BioAssay data set” (2004)
Several values for one entry are separate records, joined by “and”; a condition that tells them apart may be missing. Equal entries are not always repeated. Activity calls are given as the source filed them.

How the values were obtained:
[1] = HEK-293T cell viability reduction – luminescence, B-cell screen hits, cytotoxicity control for BCR NF-kB inhibitor project, dose response (AID 489021); format: functional, cell-based;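 further: HEK-293T cells carrying an NF-kB luciferase reporter; cells exposed to compound for about 14 hours before viability readout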
Jurkat = test: SAR Analysis of small molecule inhibitors of T-cell specific antigen receptor-induced NF-kB activation in a Jurkat cell line using a luminescence assay - Set 2. [Related pubchem assays (depositor defined):AID435003, AID435012, AID465]; format: functional, cell-based; conditions: Homo sapiens
HEK293 [2] = test: SAR Analysis of small molecule inhibitors of T-cell specific antigen receptor-induced NF-kB activation in a HEK-293T cell line using a luminescence assay - Set 2. [Related pubchem assays (depositor defined):AID435003, AID435012, AID489026]; format: functional, cell-based; conditions: Homo sapiens
HEK293 [3] = test: HEK293T cell viability loss, resazurin readout – resazurin fluorescence, cytotoxicity control for NF-kB activator project, SAR follow-up (AID 493251); format: functional, cell-based; conditions: Homo sapiens
Escherichia coli = test: microbe, parasite or virus in culture
[4] = target: Glycogen synthase kinase-3 beta (Homo sapiens, UniProt P49841); test: Inhibition of Human GSK-3 beta Activity Measured in Biochemical System Using Microfluidics - 2063-05_Inhibitor_Dose_DryPowder_Activity. [Related pubchem assays (depositor defined):AID2709]
[5] = target: Glycogen synthase kinase-3 alpha (Homo sapiens, UniProt P49840); test: Inhibition of Human GSK-3 alpha Activity Measured in Biochemical System Using Microfluidics - 2063-06_Inhibitor_Dose_DryPowder_Activity. [Related pubchem assays (depositor defined):AID2709]
[6] = target: Beta-2 adrenergic receptor (Homo sapiens, UniProt P07550); test: ADRB2 activation measured by internalization – cell-based, FAP fluorogen, flow cytometry, cherry pick 1, dose response (AID 588763); format: functional
Hexokinase HKDC1 = target: T1, Hexokinase HKDC1 (Homo sapiens, UniProt Q2TB90); test: SAR analysis of small molecule inhibitors of hexokinase domain containing I (HKDC1). [Related pubchem assays (depositor defined):AID493160, AID493190]; format: functional
T1 sequence (Q2TB90 whole entry): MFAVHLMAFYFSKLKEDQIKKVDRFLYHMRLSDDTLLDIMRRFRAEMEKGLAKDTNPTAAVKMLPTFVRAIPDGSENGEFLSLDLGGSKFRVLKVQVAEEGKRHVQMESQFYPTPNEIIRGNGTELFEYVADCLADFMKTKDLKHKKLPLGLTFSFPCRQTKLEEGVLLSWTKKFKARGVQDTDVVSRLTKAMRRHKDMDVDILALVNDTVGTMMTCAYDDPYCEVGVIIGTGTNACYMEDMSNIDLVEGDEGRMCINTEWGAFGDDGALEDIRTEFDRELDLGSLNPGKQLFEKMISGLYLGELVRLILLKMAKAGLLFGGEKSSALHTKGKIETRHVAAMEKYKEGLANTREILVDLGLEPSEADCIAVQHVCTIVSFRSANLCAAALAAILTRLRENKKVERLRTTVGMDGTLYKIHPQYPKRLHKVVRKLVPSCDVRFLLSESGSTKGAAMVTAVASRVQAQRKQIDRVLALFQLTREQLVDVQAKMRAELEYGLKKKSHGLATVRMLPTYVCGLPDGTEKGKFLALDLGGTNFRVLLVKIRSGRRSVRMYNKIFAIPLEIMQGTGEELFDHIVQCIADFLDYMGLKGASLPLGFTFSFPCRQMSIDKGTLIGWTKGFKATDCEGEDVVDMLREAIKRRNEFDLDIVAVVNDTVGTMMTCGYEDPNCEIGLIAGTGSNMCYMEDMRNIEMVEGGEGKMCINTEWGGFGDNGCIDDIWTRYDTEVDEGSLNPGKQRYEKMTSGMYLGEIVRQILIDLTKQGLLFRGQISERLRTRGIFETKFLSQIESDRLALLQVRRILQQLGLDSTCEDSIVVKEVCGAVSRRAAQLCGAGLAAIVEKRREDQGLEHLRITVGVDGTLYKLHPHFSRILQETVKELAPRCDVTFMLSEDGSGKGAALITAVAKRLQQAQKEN

Hexokinase-1 = Hexokinase-1 (Homo sapiens, UniProt P19367); test: SAR analysis of small molecule inhibitors of hexokinase domain containing I (HKDC1) in the hexokinase 1 selectivity assay. [Related pubchem assays (depositor defined):AID493160, AID493190]; format: functional
[7] = viability loss in Vero cells – cytotoxicity control for Vif-APOBEC3G degradation inhibitor project, dose response (AID 1117358); format: functional; conditions: Vero
[8] = target: Dual specificity tyrosine-phosphorylation-regulated kinase 1A (Rattus norvegicus, UniProt Q63470); format: biochemical, Homo sapiens
[9] = target: Dual specificity protein kinase CLK1 (Homo sapiens, UniProt P49759); test: inhibition of human CLK1 activity – biochemical, cherry-picked samples, selectivity assay for Dyrk1A inhibitor project, dose response (AID 588811)
[10] = target: Delta-type opioid receptor (Homo sapiens, UniProt P41143); test: Counterscreen for agonists of heterodimerization of the mu 1 (OPRM1) and delta 1 (OPRD1) opioid receptors: Luminescence-based cell-based high throughput dose response assay to identify agonists of OPRD1 homodimerization. [Related pubchem assays (depositor defined):AID504326, AID504355, AID504692, AID504904, AID504905]; format: functional
Mu-type opioid receptor = Mu-type opioid receptor (Homo sapiens, UniProt P35372); test: Counterscreen for agonists of heterodimerization of the mu 1 (OPRM1) and delta 1 (OPRD1) opioid receptors: Luminescence-based cell-based high throughput dose response assay to identify agonists of OPRM1 homodimerization.; format: functional;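 further: U2OS cells expressing OPRM1 and beta-arrestin as split beta-galactosidase partners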
[11] = target: 5-hydroxytryptamine receptor 5A (Homo sapiens, UniProt P47898); test: Counterscreen for agonists of OPRM1-OPRD1 heterodimerization: luminescence-based cell-based high throughput dose response assay to identify agonists of 5-hydroxytryptamine (serotonin) 5A receptor (HTR5A). [Related pubchem assays (depositor defined):AID504326, AID504355, AID504692, AID504904, AID504905]; format: functional
[12] = target: Opioid receptors; mu & delta (Homo sapiens, UniProt P41143+P35372); test: OPRM1-OPRD1 heterodimer agonist potency – cell-based, luminescence, dose response (AID 588407); format: functional
[13] = target: T2, Zinc finger protein mex-5 (Caenorhabditis elegans, UniProt Q9XUB2); test: potency of MEX-5 RNA-binding blockers – biochemical, C. elegans, fluorescence polarization, dose response (AID 1960)
T2 sequence (Q9XUB2 whole entry): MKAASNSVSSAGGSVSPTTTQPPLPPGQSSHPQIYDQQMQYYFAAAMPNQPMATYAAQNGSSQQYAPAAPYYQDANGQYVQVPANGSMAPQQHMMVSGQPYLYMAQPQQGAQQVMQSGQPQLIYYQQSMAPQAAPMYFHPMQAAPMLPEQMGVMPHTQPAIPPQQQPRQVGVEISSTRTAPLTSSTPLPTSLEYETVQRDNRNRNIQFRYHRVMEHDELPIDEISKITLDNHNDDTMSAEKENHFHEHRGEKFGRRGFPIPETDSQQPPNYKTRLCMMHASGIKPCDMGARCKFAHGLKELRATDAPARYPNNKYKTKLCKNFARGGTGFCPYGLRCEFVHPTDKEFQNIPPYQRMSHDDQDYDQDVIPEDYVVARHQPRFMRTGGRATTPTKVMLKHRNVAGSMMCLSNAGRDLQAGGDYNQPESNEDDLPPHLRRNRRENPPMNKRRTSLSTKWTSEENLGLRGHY

[14] = target: Long-chain-fatty-acid--AMP ligase FadD28 (Mycobacterium tuberculosis, UniProt P9WQ59); test: Fluorescence polarization aasay to screen for inhibitors that compete for the binding of FadD28 to a bisubstrate Measured in Biochemical System Using Plate Reader - 2147-01_Inhibitor_Dose_CherryPick_Activity.; format: functional, Mycobacterium tuberculosis H37Rv
[15] = target: T3, RNA-binding protein pos-1 (Caenorhabditis elegans, UniProt G5EF15); test: disruptors of C. elegans POS-1 RNA interaction – biochemical, fluorescence polarization, dose response (AID 1964);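 further: purified POS-1 fused to maltose binding protein made in E. coli; potency of compounds blocking POS-1 binding to fluorescent RNA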
T3 sequence (G5EF15 whole entry): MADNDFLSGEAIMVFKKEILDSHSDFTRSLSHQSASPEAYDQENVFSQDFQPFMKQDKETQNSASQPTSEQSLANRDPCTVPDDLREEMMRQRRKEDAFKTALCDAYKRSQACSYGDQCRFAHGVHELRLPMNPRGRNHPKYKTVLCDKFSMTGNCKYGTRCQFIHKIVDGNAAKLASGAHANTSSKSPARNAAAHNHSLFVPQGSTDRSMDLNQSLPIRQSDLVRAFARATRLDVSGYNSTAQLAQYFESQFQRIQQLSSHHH

[16] = target: T4, Apoptotic protease-activating factor 1 (Homo sapiens, UniProt O14727); format: functional
T4 sequence (O14727 whole entry): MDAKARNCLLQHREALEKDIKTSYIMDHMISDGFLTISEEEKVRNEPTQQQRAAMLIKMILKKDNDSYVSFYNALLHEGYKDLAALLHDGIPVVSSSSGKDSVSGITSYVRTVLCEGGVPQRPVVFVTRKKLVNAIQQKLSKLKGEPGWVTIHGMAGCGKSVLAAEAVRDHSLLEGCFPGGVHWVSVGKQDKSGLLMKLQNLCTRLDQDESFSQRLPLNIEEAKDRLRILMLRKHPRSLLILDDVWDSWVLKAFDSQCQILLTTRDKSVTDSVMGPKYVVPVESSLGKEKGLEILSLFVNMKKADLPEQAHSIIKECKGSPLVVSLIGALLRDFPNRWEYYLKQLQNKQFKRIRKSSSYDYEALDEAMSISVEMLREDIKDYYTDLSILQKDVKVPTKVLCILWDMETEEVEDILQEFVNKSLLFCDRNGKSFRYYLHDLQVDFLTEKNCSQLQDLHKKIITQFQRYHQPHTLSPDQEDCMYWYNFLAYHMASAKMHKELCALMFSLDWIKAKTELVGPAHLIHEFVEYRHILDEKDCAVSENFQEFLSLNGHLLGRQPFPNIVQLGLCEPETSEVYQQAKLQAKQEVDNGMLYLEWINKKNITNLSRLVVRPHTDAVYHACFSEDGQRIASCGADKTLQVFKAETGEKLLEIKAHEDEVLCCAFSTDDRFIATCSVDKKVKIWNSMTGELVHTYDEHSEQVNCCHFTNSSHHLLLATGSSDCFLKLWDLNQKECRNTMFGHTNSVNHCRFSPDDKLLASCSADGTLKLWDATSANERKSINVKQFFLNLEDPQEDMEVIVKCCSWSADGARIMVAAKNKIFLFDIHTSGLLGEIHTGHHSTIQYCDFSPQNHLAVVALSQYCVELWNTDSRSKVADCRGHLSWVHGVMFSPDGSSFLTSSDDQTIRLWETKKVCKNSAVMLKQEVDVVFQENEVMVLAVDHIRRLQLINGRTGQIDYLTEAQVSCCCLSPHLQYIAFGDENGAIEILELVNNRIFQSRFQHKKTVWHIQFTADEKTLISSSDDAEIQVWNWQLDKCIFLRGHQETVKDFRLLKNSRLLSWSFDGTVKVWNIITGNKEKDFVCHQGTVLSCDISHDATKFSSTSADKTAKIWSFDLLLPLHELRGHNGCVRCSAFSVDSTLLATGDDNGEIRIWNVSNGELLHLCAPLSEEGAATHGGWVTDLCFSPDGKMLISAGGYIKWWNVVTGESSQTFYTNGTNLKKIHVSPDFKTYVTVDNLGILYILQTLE

Beta-arrestin-1 = Beta-arrestin-1 (Homo sapiens, UniProt P49407); test: beta-arrestin/AP2 interaction blockers, potency – biochemical, cherry pick 1, beta2-adaptin appendage, flow cytometry, dose response (AID 588783); format: functional
Chain of Beta-arrestin-1 (P49407 whole entry): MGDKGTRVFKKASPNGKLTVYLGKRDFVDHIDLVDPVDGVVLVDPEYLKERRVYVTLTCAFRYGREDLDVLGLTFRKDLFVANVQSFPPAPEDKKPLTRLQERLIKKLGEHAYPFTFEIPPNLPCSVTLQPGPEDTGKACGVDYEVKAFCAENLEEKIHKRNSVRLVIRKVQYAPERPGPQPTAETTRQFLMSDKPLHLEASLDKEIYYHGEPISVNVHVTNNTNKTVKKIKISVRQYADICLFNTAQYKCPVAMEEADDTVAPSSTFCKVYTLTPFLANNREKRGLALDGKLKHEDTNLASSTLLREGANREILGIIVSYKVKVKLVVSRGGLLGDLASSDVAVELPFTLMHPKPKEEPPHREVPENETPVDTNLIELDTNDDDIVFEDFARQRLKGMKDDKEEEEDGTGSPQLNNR

Chain of Beta-2 adrenergic receptor (P07550 whole entry, the tested form may be a part): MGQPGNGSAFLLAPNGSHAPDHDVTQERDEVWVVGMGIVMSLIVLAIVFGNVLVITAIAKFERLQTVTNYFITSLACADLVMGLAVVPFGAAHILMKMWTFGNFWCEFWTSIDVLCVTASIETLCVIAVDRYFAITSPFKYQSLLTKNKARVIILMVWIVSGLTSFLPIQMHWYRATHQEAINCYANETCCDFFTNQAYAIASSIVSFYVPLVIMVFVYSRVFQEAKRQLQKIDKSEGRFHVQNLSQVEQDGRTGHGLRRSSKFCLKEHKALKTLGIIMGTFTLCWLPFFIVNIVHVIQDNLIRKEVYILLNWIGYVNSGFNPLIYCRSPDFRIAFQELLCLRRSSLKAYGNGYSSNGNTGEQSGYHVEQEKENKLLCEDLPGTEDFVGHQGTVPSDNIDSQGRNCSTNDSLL
Chain of Delta-type opioid receptor (P41143 whole entry): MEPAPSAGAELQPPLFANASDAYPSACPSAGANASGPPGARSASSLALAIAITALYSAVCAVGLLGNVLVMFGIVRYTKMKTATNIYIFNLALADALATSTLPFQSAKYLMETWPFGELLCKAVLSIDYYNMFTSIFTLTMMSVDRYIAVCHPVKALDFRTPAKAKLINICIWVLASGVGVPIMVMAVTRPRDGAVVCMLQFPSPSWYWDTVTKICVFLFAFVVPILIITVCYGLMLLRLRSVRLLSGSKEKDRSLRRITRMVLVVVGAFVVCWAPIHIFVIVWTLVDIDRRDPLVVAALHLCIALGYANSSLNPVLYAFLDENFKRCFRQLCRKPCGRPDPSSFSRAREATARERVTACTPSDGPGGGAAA
Chain of 5-hydroxytryptamine receptor 5A (P47898 whole entry): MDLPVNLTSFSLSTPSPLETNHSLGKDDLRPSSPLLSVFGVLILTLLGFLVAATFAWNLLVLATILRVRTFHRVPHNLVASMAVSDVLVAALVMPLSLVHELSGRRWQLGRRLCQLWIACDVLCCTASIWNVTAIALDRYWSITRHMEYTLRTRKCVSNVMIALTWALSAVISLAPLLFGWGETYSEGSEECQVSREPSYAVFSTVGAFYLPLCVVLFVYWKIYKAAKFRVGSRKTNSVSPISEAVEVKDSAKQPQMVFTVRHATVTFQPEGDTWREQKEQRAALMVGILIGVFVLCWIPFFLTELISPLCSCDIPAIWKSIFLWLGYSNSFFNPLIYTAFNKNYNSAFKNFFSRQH
Chain of Dual specificity protein kinase CLK1 (P49759 whole entry): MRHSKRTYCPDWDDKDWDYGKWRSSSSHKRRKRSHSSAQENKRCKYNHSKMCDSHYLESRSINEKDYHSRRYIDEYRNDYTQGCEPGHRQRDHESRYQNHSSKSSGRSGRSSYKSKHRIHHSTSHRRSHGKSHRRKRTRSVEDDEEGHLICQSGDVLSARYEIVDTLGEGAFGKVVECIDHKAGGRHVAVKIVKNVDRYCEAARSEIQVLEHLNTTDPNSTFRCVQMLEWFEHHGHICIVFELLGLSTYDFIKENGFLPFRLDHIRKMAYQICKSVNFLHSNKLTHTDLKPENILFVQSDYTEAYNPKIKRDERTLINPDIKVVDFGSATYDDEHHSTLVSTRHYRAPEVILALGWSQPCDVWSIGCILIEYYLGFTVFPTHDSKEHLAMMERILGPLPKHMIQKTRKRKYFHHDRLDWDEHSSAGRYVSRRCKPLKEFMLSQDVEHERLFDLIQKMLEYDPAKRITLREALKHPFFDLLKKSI
Chain of Long-chain-fatty-acid--AMP ligase FadD28 (P9WQ59 whole entry, the tested form may be a part): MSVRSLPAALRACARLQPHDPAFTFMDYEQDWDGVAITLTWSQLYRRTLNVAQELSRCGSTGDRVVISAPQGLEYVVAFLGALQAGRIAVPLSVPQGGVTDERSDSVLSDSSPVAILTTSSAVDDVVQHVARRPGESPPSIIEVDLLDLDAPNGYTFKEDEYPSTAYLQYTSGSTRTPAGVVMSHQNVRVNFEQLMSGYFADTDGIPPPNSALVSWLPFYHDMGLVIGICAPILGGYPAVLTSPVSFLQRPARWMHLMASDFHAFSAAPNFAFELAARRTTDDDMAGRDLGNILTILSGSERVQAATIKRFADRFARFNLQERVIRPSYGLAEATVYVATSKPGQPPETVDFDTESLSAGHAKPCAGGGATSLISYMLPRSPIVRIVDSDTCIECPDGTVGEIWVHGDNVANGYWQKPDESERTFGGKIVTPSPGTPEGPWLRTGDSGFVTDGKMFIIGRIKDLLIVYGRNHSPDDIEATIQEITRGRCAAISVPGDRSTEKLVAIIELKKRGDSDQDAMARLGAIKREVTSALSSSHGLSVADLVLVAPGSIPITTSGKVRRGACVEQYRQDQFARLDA
Chain of Glycogen synthase kinase-3 beta (P49841 whole entry): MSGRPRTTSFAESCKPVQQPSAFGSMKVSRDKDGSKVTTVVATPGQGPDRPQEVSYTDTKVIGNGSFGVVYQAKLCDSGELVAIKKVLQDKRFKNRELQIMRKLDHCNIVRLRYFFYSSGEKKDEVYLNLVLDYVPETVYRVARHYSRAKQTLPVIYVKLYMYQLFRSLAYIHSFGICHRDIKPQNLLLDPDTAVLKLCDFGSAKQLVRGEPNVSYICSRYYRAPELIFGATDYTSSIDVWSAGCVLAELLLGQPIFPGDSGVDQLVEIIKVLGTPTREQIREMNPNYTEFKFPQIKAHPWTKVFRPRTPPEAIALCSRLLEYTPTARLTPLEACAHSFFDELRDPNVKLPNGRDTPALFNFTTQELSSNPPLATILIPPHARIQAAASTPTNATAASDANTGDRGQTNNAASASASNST
Chain of Hexokinase-1 (P19367 whole entry, the tested form may be a part): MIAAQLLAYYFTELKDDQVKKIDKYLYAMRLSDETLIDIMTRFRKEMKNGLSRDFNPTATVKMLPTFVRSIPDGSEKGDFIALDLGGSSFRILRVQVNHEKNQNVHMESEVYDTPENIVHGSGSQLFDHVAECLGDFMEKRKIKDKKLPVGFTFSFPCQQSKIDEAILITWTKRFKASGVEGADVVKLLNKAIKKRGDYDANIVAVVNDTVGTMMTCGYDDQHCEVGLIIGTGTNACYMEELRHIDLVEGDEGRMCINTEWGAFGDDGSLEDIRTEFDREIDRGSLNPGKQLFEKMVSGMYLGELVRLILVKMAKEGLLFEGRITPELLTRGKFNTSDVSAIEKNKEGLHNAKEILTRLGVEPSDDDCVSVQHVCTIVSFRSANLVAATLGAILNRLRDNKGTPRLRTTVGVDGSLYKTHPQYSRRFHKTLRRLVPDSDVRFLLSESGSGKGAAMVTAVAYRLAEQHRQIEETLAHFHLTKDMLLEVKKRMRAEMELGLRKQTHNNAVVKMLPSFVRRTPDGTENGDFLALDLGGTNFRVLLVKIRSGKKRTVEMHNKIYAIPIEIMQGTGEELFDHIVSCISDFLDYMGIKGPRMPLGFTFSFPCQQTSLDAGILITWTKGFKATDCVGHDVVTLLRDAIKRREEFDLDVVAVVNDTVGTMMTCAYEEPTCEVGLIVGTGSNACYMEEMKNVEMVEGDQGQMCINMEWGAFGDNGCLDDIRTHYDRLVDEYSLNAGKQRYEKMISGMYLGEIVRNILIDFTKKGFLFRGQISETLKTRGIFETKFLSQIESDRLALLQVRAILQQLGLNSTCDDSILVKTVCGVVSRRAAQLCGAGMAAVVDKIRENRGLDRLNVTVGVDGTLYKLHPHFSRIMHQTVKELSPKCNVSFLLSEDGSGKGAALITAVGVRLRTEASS
Chain of Glycogen synthase kinase-3 alpha (P49840 whole entry): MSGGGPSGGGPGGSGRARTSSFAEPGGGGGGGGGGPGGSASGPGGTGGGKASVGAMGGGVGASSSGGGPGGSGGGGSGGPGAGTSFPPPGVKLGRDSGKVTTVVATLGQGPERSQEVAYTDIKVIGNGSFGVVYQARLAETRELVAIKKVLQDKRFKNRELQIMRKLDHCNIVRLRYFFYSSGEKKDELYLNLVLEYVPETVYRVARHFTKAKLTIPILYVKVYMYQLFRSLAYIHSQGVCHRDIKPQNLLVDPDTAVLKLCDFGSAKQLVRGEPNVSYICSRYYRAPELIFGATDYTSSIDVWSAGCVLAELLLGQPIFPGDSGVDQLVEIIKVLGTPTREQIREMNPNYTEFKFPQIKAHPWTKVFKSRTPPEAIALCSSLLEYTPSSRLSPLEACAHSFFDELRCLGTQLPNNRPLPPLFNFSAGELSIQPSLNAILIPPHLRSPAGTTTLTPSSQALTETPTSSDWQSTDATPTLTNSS
Chain of Mu-type opioid receptor (P35372 whole entry): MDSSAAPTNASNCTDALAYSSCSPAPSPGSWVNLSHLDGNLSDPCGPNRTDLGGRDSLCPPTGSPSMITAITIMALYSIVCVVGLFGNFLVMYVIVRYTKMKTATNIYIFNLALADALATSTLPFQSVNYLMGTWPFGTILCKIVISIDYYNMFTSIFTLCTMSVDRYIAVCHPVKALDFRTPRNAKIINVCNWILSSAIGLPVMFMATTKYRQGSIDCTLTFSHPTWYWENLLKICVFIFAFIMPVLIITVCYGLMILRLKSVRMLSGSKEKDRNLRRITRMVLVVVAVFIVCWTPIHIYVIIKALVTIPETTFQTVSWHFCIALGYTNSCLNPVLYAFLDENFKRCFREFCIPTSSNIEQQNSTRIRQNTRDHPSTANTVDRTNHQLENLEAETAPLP

COc1cc(-c2nc3n(n2)C(c2ccc(F)cc2)C2=C(O)CCCC2=N3)cc(OC)c1OC (configuration not stated)
IC50 [1]: > 80 µM (inactive) | IC50 (Jurkat): > 79 µM (inactive) | IC50 (HEK293 [2]): 31.4 µM (inactive) | IC50 (HEK293 [3]): 39.1 µM (inactive)

Cc1cc(C)n2nc(SCC(=O)N3CCN(c4ccccc4)CC3)nc2n1
AC50 (Escherichia coli): 106 µM (active)

c1cncc(-c2nc(NCCCn3cccc3)c3ccccc3n2)c1
AC50 [4]: 2.97 µM (active) | AC50 [5]: 7.63 µM (active)

CCOC(=O)c1ccc(NC(=O)Cn2nnc(-c3ccc(C)cc3)n2)cc1
EC50 [6]: 158 nM (active) and 839 nM (active)

O=c1c2ccccc2nc(/C=C/c2cccnc2)n1Cc1ccccc1F
IC50 (Hexokinase HKDC1): > 80 µM (inactive) | IC50 (Hexokinase-1): > 80 µM (inactive)

CN(C)S(=O)(=O)c1ccc(NC(=O)c2cc3ccccc3o2)cc1
CC50 [7]: > 40 µM (active) | AC50 [8]: 29.9 µM (active) | AC50 [9]: 21.1 µM (active)

Br.CC1[C@H]2Cc3ccc(O)cc3[C@]1(C)CCN2CCc1ccccc1 (some centres not stated)
EC50 [10]: 0.551 µM (active) | EC50 (Mu-type opioid receptor): > 10.3 µM (inactive) | EC50 [11]: > 92.5 µM (inactive) | EC50 [12]: > 0.01406 µM

Cc1cc2nc3ccc(N(C)C)cc3nc2cc1N
EC50 [13]: 14.3 µM (active) | AC50 [14]: 33.6 µM (active) | EC50 [15]: 13 µM (active) | IC50 [16]: 34 µM (active) | IC50 (Beta-arrestin-1): 8.88 µM (active)
